Source: patent US9809537B2, “Glycosidase inhibitors and uses thereof” (Alectos Therapeutics Inc., priority 2012, dated 2017)

Assays:
human O-GlcNAcase = target: T1, human O-GlcNAcase (Homo sapiens, UniProt O60502); test: Fluorescence-based assay for KI values for inhibition of O-GlcNAcase activity; format: biochemical; conditions: purified human O-GlcNAcase, 4-methylumbelliferyl GlcNAc substrate, pH 7.0, Cheng-Prusoff; read-out: Fluorescence-based hOGA Ki
T1 sequence (O60502 1-916): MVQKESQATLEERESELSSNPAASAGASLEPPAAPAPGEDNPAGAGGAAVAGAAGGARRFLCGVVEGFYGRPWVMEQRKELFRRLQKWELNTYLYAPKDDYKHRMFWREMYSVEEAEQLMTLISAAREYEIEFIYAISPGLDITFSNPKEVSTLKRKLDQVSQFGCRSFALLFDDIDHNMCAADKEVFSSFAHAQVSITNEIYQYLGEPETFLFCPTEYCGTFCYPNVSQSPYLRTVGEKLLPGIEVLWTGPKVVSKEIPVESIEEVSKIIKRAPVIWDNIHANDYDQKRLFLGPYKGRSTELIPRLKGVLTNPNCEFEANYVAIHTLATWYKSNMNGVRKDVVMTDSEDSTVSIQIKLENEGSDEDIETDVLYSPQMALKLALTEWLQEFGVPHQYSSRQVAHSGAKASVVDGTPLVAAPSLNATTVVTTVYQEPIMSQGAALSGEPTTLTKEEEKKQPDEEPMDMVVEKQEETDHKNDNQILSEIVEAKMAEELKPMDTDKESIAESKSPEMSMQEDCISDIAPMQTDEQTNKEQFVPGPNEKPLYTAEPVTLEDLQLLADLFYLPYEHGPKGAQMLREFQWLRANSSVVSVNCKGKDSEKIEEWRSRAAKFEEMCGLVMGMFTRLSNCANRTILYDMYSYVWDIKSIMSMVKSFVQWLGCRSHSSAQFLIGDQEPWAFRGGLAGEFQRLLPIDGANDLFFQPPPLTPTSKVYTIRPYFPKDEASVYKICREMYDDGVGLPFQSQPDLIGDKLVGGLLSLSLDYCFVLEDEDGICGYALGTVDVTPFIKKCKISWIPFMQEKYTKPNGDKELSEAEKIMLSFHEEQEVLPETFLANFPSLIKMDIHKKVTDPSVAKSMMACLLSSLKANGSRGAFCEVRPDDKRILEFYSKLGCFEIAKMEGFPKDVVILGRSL
Description: Assay for Determination of KI Values for Inhibition of O-GlcNAcase Activity
Experimental Procedure for Kinetic Analyses:
Enzymatic reactions were carried out in a reaction containing 50 mM NaH2PO4, 100 mM NaCl and 0.1% BSA (pH 7.0) using 2 mM 4-Methylumbelliferyl N-acetyl-β-D-glucosaminide dihydrate (Sigma M2133) dissolved in ddH2O, as a substrate. The amount of purified human O-GlcNAcase enzyme used in the reaction was 0.7 nM. Test compound of varying concentrations was added to the enzyme prior to initiation of the reaction. The reaction was performed at room temperature in a 96-well plate and was initiated with the addition of substrate. The production of fluorescent product was measured every 60 sec for 45 min with a Tecan Infinite M200 plate-reader with excitation at 355 nm and emission detected at […], with 4-Methylumbelliferone (Sigma M1381) used to produce a standard curve. The slope of product production was determined for each concentration of compound tested and plotted, using standard curve fitting algorithms for sigmoidal dose response curves. The values for a four parameter logistic curve fit of the data were determined.
KI values were determined using the Cheng-Prusoff equation; the Km of O-GlcNAcase for substrate was 0.2 mM.

[1] = Apparent permeability (Papp), bi-directional transport; format: in vitro ADME; conditions: pig, LLC-PK1, t=3 h, average of A to B and B to A, read-out: Papp LLC-PK1 cells
Description: Assay for Determination of Apparent Permeability (Papp)
Bi-directional transport is evaluated in LLC-PK1 cells in order to determine apparent permeability (Papp). LLC-PK1 cells can form a tight monolayer and therefore can be used to assess vectorial transport of compounds from basolateral to apical (B→A) and from apical to basolateral (A→B).
To determine Papp, LLC-PK1 cells are cultured in 96-well transwell culture plates (Millipore). Solutions containing the test compounds (1 μM) are prepared in Hank's Balanced Salt Solution with 10 mM HEPES. Substrate solution (150 μL) is added to either the apical (A) or the basolateral (B) compartment of the culture plate, and buffer (150 μL) is added to the compartment opposite to that containing the compound. At t=3 h, 50 μL samples are removed from both sides of monolayers dosed with test compound and placed in 96 well plates, scintillant (200 μL) or internal standard (100 μL labetolol 1 μM) is added to the samples and concentration is determined by liquid scintillation counting in a MicroBeta Wallac Trilux scintillation counter (Perkin Elmer Life Sciences, Boston, Mass.) or by LCMS/MS (Applied Biosystems SCIEX API 5000 triple quadruple mass spectrometer). [^3H]Verapamil (1 μM) is used as the positive control. The experiment is performed in triplicate.
The apparent permeability, Papp, is calculated by the following formula for samples taken at t=3 h:
[formula] Where: Volume of Receptor Chamber is 0.15 mL; Area of membrane is 0.11 cm^2; the Initial Concentration is the sum of the concentration measured in the donor plus concentration measured in receiver compartments at t=3 h; A in Concentration is concentration in the receiver compartment at 3 h; and A in Time is the incubation time (3×60×60=10800 s). Papp is expressed as 10^−6 cm/s. The Papp (LLC-PK1 cells) are the average of the Papp for transport from A to B and Papp for transport from B to A at t=3 h: […]

Structure (SMILES) | Ki (human O-GlcNAcase) [nM] | Papp at 3 h, 1 μM [1] [×10⁻⁶ cm/s]
CC(=O)NC[C@@H]1[C@@H](O)[C@H](O)[C@@H](CO)N1Cc1cccnc1 [Example 7, N-(((2R,3R,4R,5R)-3,4-dihydroxy-5-(hydroxymethyl)-1-(pyridin-3-ylmethyl)pyrrolidin-2-yl)methyl)acetamide] | 2690 | –
CC(=O)NC[C@@H]1[C@@H](O)[C@H](O)[C@@H](CO)N1CCCCc1ccccc1 [Example 5, N-(((2R,3R,4R,5R)-3,4-dihydroxy-5-(hydroxymethyl)-1-(4-phenylbutyl)pyrrolidin-2-yl)methyl)acetamide] | 172 | < 1.6
CC(=O)NC[C@@H]1[C@@H](O)[C@H](O)[C@@H](CO)N1Cc1ccc(-c2ccccc2)cc1 [Example 9, N-(((2R,3R,4R,5R)-1-([1,1′-biphenyl]-4-ylmethyl)-3,4-dihydroxy-5-(hydroxymethyl)pyrrolidin-2-yl)methyl)acetamide] | 4560 | –
COc1ccc(CCCN2[C@H](CO)[C@@H](O)[C@H](O)[C@H]2CNC(C)=O)cc1 [Example 2, N-(((2R,3R,4R,5R)-3,4-dihydroxy-5-(hydroxymethyl)-1-(3-(4-methoxyphenyl)propyl)pyrrolidin-2-yl)methyl)acetamide] | 106 | 2.6
CCCCCCN1C(CNC(C)=O)[C@@H](O)[C@H](O)[C@H]1CO (stereo partly drawn) [reference compound] | 619 | < 1.6
CCNC(=O)C[C@@H]1[C@@H](O)[C@H](O)[C@@H](CO)N1CCC(c1ccccc1)c1ccccc1 [Example 12, 2-((2R,3R,4R,5R)-1-(3,3-diphenylpropyl)-3,4-dihydroxy-5-(hydroxymethyl)pyrrolidin-2-yl)-N-ethylacetamide] | 60 | –
CC(=O)NCC1[C@@H](O)[C@H](O)[C@@H](CO)N1CCc1ccccc1 (stereo partly drawn) [reference compound] | 343 | –
CCCCN1C(CNC(C)=O)[C@@H](O)[C@H](O)[C@H]1CO (stereo partly drawn) [reference compound] | 1030 | –

More lines, now with the values ahead:

Ki (human O-GlcNAcase) [nM] | Papp at 3 h, 1 μM [1] [×10⁻⁶ cm/s] | Structure (SMILES)
55 | – | CNC(=O)C[C@@H]1[C@@H](O)[C@H](O)[C@@H](CO)N1CCCc1ccccc1 [Example 10, 2-((2R,3R,4R,5R)-3,4-dihydroxy-5-(hydroxymethyl)-1-(3-phenylpropyl)pyrrolidin-2-yl)-N-methylacetamide]
3020 | – | CC(=O)NC[C@@H]1[C@@H](O)[C@H](O)[C@@H](CO)N1Cc1ccccn1 [Example 8, N-(((2R,3R,4R,5R)-3,4-dihydroxy-5-(hydroxymethyl)-1-(pyridin-2-ylmethyl)pyrrolidin-2-yl)methyl)acetamide]
2020 | – | CCCN1C(CNC(C)=O)[C@@H](O)[C@H](O)[C@H]1CO (stereo partly drawn) [reference compound]
369 | – | CC(=O)NC[C@@H]1[C@@H](O)[C@H](O)[C@@H](CO)N1CCCc1ccccc1 [Example 1, N-(((2R,3R,4R,5R)-3,4-dihydroxy-5-(hydroxymethyl)-1-(3-phenylpropyl)pyrrolidin-2-yl)methyl)acetamide]
79 | 4.4 | CC(=O)NC[C@@H]1[C@@H](O)[C@H](O)[C@@H](CO)N1CCc1ccc(-c2ccccc2)cc1 [Example 4, N-(((2R,3R,4R,5R)-1-(2-([1,1′-biphenyl]-4-yl)ethyl)-3,4-dihydroxy-5-(hydroxymethyl)pyrrolidin-2-yl)methyl)acetamide]
8.3 | – | CNC(=O)C[C@@H]1[C@H](O)[C@H](O)[C@@H](CO)N1CCCc1ccccc1 [Example 13, 2-((2R,3S,4R,5R)-3,4-dihydroxy-5-(hydroxymethyl)-1-(3-phenylpropyl)pyrrolidin-2-yl)-N-methylacetamide]
108 | – | CC(=O)NC[C@H]1N[C@H](CO)[C@@H](O)[C@@H]1O [reference compound]
41 | – | CC(=O)NC[C@@H]1[C@@H](O)[C@H](O)[C@@H](CO)N1CCC(c1ccccc1)c1ccccc1 [Example 6, N-(((2R,3R,4R,5R)-1-(3,3-diphenylpropyl)-3,4-dihydroxy-5-(hydroxymethyl)pyrrolidin-2-yl)methyl)acetamide]
132 | – | CCNC(=O)C[C@@H]1[C@@H](O)[C@H](O)[C@@H](CO)N1CCCc1ccc(OC)cc1 [Example 11, 2-((2R,3R,4R,5R)-3,4-dihydroxy-5-(hydroxymethyl)-1-(3-(4-methoxyphenyl)propyl)pyrrolidin-2-yl)-N-ethylacetamide]
